Test [1] addresses T1, human MR LBD (Homo sapiens (Human), UniProt P08235). Kind of test: Mineralocorticoid Binding, Test A1 (SPA beads, 3H-aldosterone displacement). Particulars: displacement of 5 nM 3H-aldosterone, MBP-MR LBD/P23 lysate.
The target of test [2] is T2, MR (UAS-MR-bla HEK293 cells) (Homo sapiens, UniProt P08235). The test can be described thus: Mineralocorticoid Cellular Reporter Gene Assay, Test B1 (0.25 nM aldosterone). In general terms: In a reporter assay the amount or activity of a reporter protein is the signal.
The target in test [3] is T1, human MR LBD. Particulars: read-out: Test A2 IC50; displacement of 5 nM 3H-aldosterone, MBP-MR LBD/P23 lysate, Imaging beads.
Procedure: In order to identify binding to the human MR LBD a scintillation proximity assay (SPA) was adapted to the 384-well format. The MR-LBD (amino acids T729-K985) was expressed as N-terminal fusion with maltose binding protein in Hi5 insect cells by co-infection with recombinant MBP-MR LBD and P23 baculoviruses and crude protein lysate was used in the assay.
Briefly, in Test A1 the assay was run in 384 well format in 10 mM Tris-HCl, pH 7.5, 0.5 mM EDTA 20 mM NaMoO4, 0.1 mM DTT and 10% glycerol at rt. Compounds were tested in a 7 (Test A1) or 10 (Test A2) concentration response curve ranging from 10 nM to 10 μM (Test A1) or 1 nM to 37 μM (Test A2). Compounds were spotted at the bottom of a well of a 384-well PE Opti-Plate to yield final DMSO concentrations in the assay of 2%. Pre-made MBP-MR/P23 lysate: ^3H-aldosterone mix (final assay concentration 7 μg/mL MBP-MR LBD/P23 lysate; 5 nM aldosterone) was added onto the top of the spotted compound and preincubated for 1 h at RT. […] The inhibition of the scintillation signal by displacement of the bound ^3H-aldosterone by test compounds is measured by scintillation counting using a Microbeta Trilux (Wallac) (Test A1) or a by CCD camera detection using a LEADseeker (PerkinElmer) (Test A2).
Test [4] concerns the target T2, MR (UAS-MR-bla HEK293 cells). Kind of test: cell-based.

Like-named read-outs stand apart in the source and are kept apart here.

A word on the IC50: it is the midpoint of a concentration-inhibition curve.

T2 sequence (P08235 whole entry, looked up, the tested form may be a part): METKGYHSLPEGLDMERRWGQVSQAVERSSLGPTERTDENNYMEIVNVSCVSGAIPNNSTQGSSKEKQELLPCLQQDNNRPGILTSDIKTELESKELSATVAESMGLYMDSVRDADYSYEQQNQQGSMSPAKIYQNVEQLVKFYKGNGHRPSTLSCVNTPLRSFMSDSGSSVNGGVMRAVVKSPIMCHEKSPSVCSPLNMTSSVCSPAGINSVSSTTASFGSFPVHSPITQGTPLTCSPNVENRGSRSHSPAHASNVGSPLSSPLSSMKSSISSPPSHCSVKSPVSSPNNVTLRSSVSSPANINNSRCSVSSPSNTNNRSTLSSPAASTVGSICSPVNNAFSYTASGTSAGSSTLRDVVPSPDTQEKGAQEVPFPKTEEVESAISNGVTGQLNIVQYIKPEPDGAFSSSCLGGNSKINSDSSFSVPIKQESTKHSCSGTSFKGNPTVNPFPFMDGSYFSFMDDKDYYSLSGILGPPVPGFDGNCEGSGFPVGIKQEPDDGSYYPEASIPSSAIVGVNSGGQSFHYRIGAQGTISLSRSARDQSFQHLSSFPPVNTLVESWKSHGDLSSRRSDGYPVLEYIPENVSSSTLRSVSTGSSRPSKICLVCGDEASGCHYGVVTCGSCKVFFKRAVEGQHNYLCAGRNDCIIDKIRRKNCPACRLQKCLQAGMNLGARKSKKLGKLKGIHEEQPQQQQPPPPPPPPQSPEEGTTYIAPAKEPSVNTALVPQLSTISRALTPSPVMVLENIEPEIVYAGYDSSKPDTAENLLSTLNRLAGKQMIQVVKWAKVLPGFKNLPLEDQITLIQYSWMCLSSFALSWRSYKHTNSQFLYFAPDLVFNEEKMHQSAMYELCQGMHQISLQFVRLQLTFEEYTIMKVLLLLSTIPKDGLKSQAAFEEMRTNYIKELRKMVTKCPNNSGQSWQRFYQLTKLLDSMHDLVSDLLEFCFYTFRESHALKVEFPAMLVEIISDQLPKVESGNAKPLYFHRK
T1 sequence (P08235 729-984 limits assumed): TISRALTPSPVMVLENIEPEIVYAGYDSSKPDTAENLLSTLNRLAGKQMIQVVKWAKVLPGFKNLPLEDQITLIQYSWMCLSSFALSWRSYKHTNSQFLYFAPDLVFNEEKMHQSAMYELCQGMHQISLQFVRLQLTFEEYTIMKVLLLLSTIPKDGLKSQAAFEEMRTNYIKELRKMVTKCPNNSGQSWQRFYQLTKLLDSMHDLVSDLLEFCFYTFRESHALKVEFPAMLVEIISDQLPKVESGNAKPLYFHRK

`NC(=O)C[C@H]1COc2cc(Br)ccc2N1C(=O)c1ccc2c(c1)NC(=O)CO2` [Example 7, 2-{(3S)-7-Bromo-4-[(3-oxo-3,4-dihydro-2H-1,4-benzoxazin-6-yl)carbonyl]-3,4-dihydro-2H-1,4-benzoxazin-3-yl}acetamide]: the IC50 at human MR LBD [1] was found to be 9.5 nM; in test [2], 45 nM.

For the molecule `CNC(=O)C[C@@H]1COc2cc(F)ccc2N1C(=O)c1ccc2c(c1)NC(=O)CO2` [Example 4b, 2-{(3R)-7-Fluoro-4-[(3-oxo-3,4-dihydro-2H-1,4-benzoxazin-6-yl)carbonyl]-3,4-dihydro-2H-1,4-benzoxazin-3-yl}-N-methylacetamide], in test [2] (HEK293, read-out: Test B1, % at 100 μM), the inhibition at 100 µM worked out at 35%.

Take `NC(=O)CC1COc2ccccc2N1C(=O)c1ccc2c(c1)NC(=O)CO2` (stereo not shown) [Example 1]: the IC50 stood at 1400 nM on human MR LBD [1], 2900 nM at human MR LBD [3], 620 nM in test [4] and 2100 nM in test [2].

Values taken from US9394291B2, “Benzoxazinone amides as mineralocorticoid receptor modulators” (AstraZeneca AB, priority 2014, dated 2016).
